According to ChEMBL document CHEMBL4715879, “Total Synthesis of the Antitumor-Antitubercular 2,6'-Bijuglone Natural Product Diospyrin and Its 3,6'-Isomer” (J Nat Prod, 2020):

Columns and labels:
[1] = Inhibition of Mycobacterium tuberculosis DNA gyrase assessed as reduction in DNA supercoiled DNA formation incubated for 30 mins by […] analysis
NFF [2] = assay: Cytotoxicity against human NFF cells assessed as reduction in cell viability after 48 hrs by resazurin dye based assay
[3] = Selectivity index, ratio of IC50 for cytotoxicity against human NFF cells to […] for antiproliferative activity against mouse NS-1 cells
[4] = Antiproliferative activity against mouse NS-1 cells assessed as reduction in cell viability after 48 hrs by resazurin dye based assay; format: functional; settings: NS1, 48 h
NFF [5] = assay: Cytotoxicity against human NFF cells assessed as reduction in cell viability at 1 mM after 48 hrs by resazurin dye based assay relative to control; settings: 1000 µM

SMILES	IC50 [1] [µM]	IC50 (NFF [2]) [µM]	Ratio IC50 [3]	IC50 [4] [µM]	Activity (NFF [5]) [%]
Cc1cc2c(c(O)c1-c1c(C)cc(O)c3c1C(=O)C=CC3=O)C(=O)C=CC2=O	100	–	–	–	–
COc1cc(C)cc2c1C(=O)C=C(c1c(C)cc3c(c1OC)C(=O)C=CC3=O)C2=O	–	25.7	31	0.8	–
Cc1cc(O)c2c(c1)C(=O)C=C(c1c(C)cc3c(c1O)C(=O)C=CC3=O)C2=O	–	31.8	14	1.8	–
O=C(O)c1cn(C2CC2)c2cc(N3CCNCC3)c(F)cc2c1=O [CIPROFLOXACIN]	10	–	–	–	–
Cc1cc(O)c2c(c1)C(=O)C(c1c(C)cc3c(c1O)C(=O)C=CC3=O)=CC2=O [DIOSPYRIN]	15	5.8	10	0.8	–
O=c1[nH]cc(F)c(=O)[nH]1 [FLUOROURACIL]	–	–	>352	2.8	13
Cc1cc(O)c2c(c1)C(=O)C=C(c1c(C)cc(O)c3c1C(=O)C=CC3=O)C2=O [NEODIOSPYRIN]	50	–	–	–	–
Cc1cc(O)c2c(c1)C(=O)C=CC2=O [RAMENTACEONE]	–	7.6	15	0.5	–
